From patent publication US20020042400A1, “Novel alicyclic imidazoles as H3 agents” (priority 2000, published 2002)
Where a name gives a salt, the structure may show the parent alone. Read-outs that look alike come from different tables or passages of the source.

What was measured:
Histamine H3 receptor [1] = molecular target: T1, Histamine H3 receptor (Rattus norvegicus, UniProt Q9QYN8); settings: radioligand Kd used in the Ki equation; read-out: Kd for [^3H]NAMHA; cited from earlier work
Histamine H3 receptor [2] = molecular target: T1, Histamine H3 receptor; experiment: Histamine H3 receptor competition binding with [^3H]NAMHA in rat cerebral cortical membranes
Description: Histamine H3 receptor affinity was determined in rat cerebral cortical membranes with [^3H]NAMHA as previously described (Tedford et al., 1995). Animals were euthanized by rapid decapitation and cerebral cortical tissues were harvested and frozen on dry ice. Cerebral cortical membranes were prepared in 50 mM sodium-phosphate buffered saline (pH 7.5 at 4° C.) containing: EDTA (10 mM), phenylmethylsulfonyl fluoride (0.1 mM), chymostatin and leupeptin (each 0.2 mg/50 mL). The final membrane pellets were resuspended in water and stored frozen at −80° C. prior to use. Protein concentrations were determined using the Coomassie Plus Protein Assay (Pierce, Rockford Ill.).
Competition binding was carried out in a total volume of 0.2 mL of 50 mM sodium-phosphate buffer (pH 7.4) using ˜1 nM [^3H]NAMHA ([^3H]—N^α-methylhistamine, available from NEN Research Products of Boston, Mass.) and 0.003 to […] concentrations of the test compounds. Non-specific binding was determined using 10 μM thioperamide. Samples were incubated for 40 minutes at 25° C. and subsequently filtered through Whatman GF/C glass fiber filters pre-soaked in binding buffer with 0.3% polyethyleneimine, using an Inotech cell harvester (Inotech Biosystems International, Lansing Mich.). The filters were rapidly washed three times with Tris-NaCl buffer (25 and 145 mM, respectively, pH 7.4, 4° C.). Samples were quantitated using Ecolume scintillation cocktail (ICN Biomedicals; Costa Mesa Calif.) and a Packard model 1900TR liquid scintillation analyzer (Packard Instrument Co., Downers Grove Ill.). IC50 values were extrapolated from a plot of receptor occupancy (i.e. % bound) vs. log [competitor].

[3] = rat cerebral cortical membranes, ~1 nM [^3H]NAMHA, 40 minutes at 25° C., Ki=IC50/(1+([ligand]/[Kd]), read-out: Ki

T1 sequence (Q9QYN8 whole entry): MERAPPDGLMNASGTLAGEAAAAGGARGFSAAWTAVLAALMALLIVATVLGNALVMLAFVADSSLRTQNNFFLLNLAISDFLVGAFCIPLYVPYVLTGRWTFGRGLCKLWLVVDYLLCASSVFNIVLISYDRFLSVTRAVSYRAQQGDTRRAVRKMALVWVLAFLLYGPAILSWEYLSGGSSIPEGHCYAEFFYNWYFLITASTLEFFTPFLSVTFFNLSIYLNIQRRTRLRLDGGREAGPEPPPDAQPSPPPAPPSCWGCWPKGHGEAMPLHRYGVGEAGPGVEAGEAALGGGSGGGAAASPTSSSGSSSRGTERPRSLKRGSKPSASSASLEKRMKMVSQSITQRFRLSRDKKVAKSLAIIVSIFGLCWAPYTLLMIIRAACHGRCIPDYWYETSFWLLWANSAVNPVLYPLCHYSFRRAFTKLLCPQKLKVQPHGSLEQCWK

| Structure (SMILES) | Ki (Histamine H3 receptor [2]; [3]) [nM] | other results |
| --- | --- | --- |
| CNCCc1cnc[nH]1 [[^3H]NAMHA, [^3H]—N^α-methylhistamine] |  | Kd (Histamine H3 receptor [1]): 0.4 nM |
| CNC(=N)[C@@H]1C[C@H]1c1c[nH]cn1 (relative stereo) [Example 7, 4-(trans-2-N-methylamidino-cyclopropyl) Imidazole Di-hydrochloric Acid Salt] | 114 |  |
| OC[C@@H]1C[C@H]1c1c[nH]cn1 (relative stereo) [Example 6, 4-(trans-2-hydroxymethyl-cyclopropyl) Imidazole Trifluoroacetic Acid Salt] | 263 |  |
| NC(=O)[C@@H]1C[C@H]1c1c[nH]cn1 (relative stereo) [Example 2, 4-(trans-2-aminocarbonyl-cyclopropyl) Imidazole Trifluoroacetic Acid Salt] | 127 |  |
| N=C(N)[C@@H]1C[C@H]1c1c[nH]cn1 (relative stereo) [Example 3, 4-(trans-2-amidino-cyclopropyl) Imidazole Di-trifluoroacetic Acid Salt] | 6.7 |  |
| NC[C@@H]1C[C@H]1c1c[nH]cn1 (relative stereo) [Example 4, 4-(trans-2-aminomethyl-cyclopropyl) Imidazole Di-hydrochloric Acid Salt] |  | Ki (Histamine H3 receptor [2]): 4.5 nM |
| O/N=C/C1CC1c1c[nH]cn1 (stereo not drawn) [Example 5, 4-(trans-2-N-hydroxyimino-cyclopropyl) Imidazole] | 23 |  |
| N#C[C@@H]1C[C@H]1c1c[nH]cn1 (relative stereo) [Example 1, 4-(trans-2-cyano-cyclopropyl) Imidazole Trifluoroacetic Acid Salt] | 20 |  |
